The subject of one data set is bleeding time. As to conditions: in vivo.
Data set [1] relates to thrombus formations in the occluded vena cava. As to the kind of experiment: thrombolytic activity on already formed vena cava thrombus versus urokinase. Type of data set: in vivo, rat. On the procedure:
DS administered intravenously is active at a dose of 0.1 mg/kg in inhibiting 90% of a Jugular vein thrombosis induced by Protein Complex Concentrate (PCC) in the rabbit, and in inhibiting 70% of a thrombosis induced by a PCC/RVV (Russel Viper Venom) combination; (Fareed J. et al.; Sem. Thromb. Haemost. 11, 155-157 (1985)).
With dermatan sulphate fractions similar to the one coded 1.25M as obtained in Example 1b) comparative studies were made on thrombolytic activity versus urokinase. Four groups of 10 rats each were anaesthetised with 1 g/kg of urethane administered in endoperitoneal physiological solution by endoperitoneal route. The vena cava of the rats was subjected to ligature in line with the Reyers test (Thromb. Res. 18, 699, 1980), and two hours after the ligature 5 mg/kg/i.v. of DS and 5000 U/kg of Ukidan (Urokinase-Serono) were administered. After eight hours the thrombus formations in the occluded vein were removed.

From patent US5547944A, “Dermatan sulphate possessing a thrombolytic activity, and pharmaceutical forms containing it” (Opocrin S.p.A., priority 1991, dated 1996) come the findings set out here.

For dermatan sulphate [DS], the “effect on bleeding time” value in the data set on bleeding time was “very little effect”. Regarding Urokinase, the “reduction in thrombus weight” value in data set [1] (bolus then 6 hours infusion: DS 2.5 mg/kg + 1.25 mg/kg/hour, urokinase 2500 U/kg + 1250 U/kg/hour, relative to untreated controls) worked out at 70.2%. Moreover, the “mean thrombus weight” value in data set [1] (treated two hours after ligature, 5 mg/kg i.v. DS or 5000 U/kg Ukidan, thrombus removed eight hours after ligature) came out at 2.2 mg.
